Where “and” joins values, the source holds several entries; their conditions need not be identical. Equal entries are not always repeated.

One series relates to monkey TM cells. Put plainly: Cell metabolic activity (resazurin reduction) assay in monkey TM cells. It is filed as cell-based, rhesus monkeys (Macaca mulatta). The conditions noted are these: at the conclusion of the treatment periods. On the procedure: A modification of previously described methods^40 was employed to evaluate cell metabolic activity, an index of cell viability. After collection of CM samples, cells were briefly rinsed in modified Hanks balanced salt solution containing Ca^++ and Mg^++ (“MHBSS”), and then 0.0025% (w/v) resazurin (Sigma) in MHBSS was added to sample wells. Plates were incubated (37° C., 5% CO2, 95% humidity) for 90 minutes, after which fluorescence (Excitation 560 nm, Emission 590 nm) was read (Victor 3V Multilabel Counter, Wallac, Turku, Finland). As a positive control for decreased cellular metabolic reduction of resazurin, in each plate an additional well of vehicle control-treated cells was preincubated with 0.06% hydrogen peroxide (Fisher, Atlanta, Ga.) in MHBSS.

Series [1] concerns PGE2 in the aqueous humor. Nature of the series: Prostaglandin E2 (PGE2) measurement in aqueous humor, rabbit paracentesis model. The format is in vivo. To be noted: for PGE2 in aqueous humor, statistical significance versus CTR: p<0.05; for PGE2 in aqueous humor, Mean / PGE2 in aqueous humor: second paracentesis; for PGE2 in aqueous humor: individual eyes. How it is done:
Each rabbit was placed in a restraint device and tagged with the alphanumeric code. The formulations were instilled (50 μl) into the conjunctival sac of both eyes 180, 120, 90 and 30 min before the first paracentesis; then 15, 30, 90 min after the first paracentesis. To perform the first paracentesis the animals were anaesthetized by intravenous injection of 5 mg/kg Zoletil® (Virbac; 2.5 mg/kg tiletamine HCl and 2.5 mg/kg zolazepam HCl) and one drop of local anesthetic (Novesina®, Novartis) was administered to the eye. Anterior chamber paracentesis was performed with a 26 G needle attached to a tuberculin syringe; the needle was introduced into the anterior chamber through the cornea, taking care not to damage the tissues. Two hours after the ® first paracentesis, the animals were sacrificed with 0.4 ml Tanax® (Intervet International B.V.) and the second paracentesis was performed. About 100 μl of aqueous humor were removed at the second paracentesis. Aqueous humor was immediately split in four aliquots and stored at −80° C. until analysis. Then both eyes were enucleated and the iris-ciliary body was carefully excised, placed in polypropylene tubes, and stored at −80° C. until analysis.
For the quantitative determination of PGE2 in the aqueous humor we used the PGE2 Immunoassay kit (R&D Systems; Cat. No. KGE004; Lot. No. 240010). Eleven microliters or 16 μl of aqueous humor were diluted to 110 μl or 160 μl with the calibrator diluent solution provided with the kit. One hundred microliters of samples and of standards were load into a 96-well plate and recorded in a plate layout. Samples were treated following the assay procedure described in the kit. A microplate reader (GDV, Italy; model DV 990 B/V6) set at 450 nm (wavelength correction at 540 nm) was used for making the calibration and analyzing the samples.
Pupillary diameter, PGE2, protein, PMN, and MPO were expressed as mean±SEM. Statistical analysis was performed using one way ANOVA followed by a Newman-Keuls post hoc test. Clinical score was expressed as % of eyes and the statistical analysis was performed using Kruskal-Wallis followed by a Dunn post hoc test. P<0.05 was considered statistically significant in both cases. Prism 4 software (GraphPad Software, Inc.) was used for the analysis and graphs.

The next series concerns rabbit eyes. Put plainly: Ophthalmic observations (slit lamp, McDonald Shadduck) in the rabbit IOP study. Set-up: key to Cornea Score: 1: Some loss of transparency. Only the epithelium and/or the anterior half of the stoma are involved. The underlying structures are clearly visible although some cloudiness may be readily apparent; key to Conjunctival congestion Score: A flushed, reddish color predominantly confined to the palpebral conjunctiva with some perilimbal injection but primarily confined to the lower and upper parts of the eye from the 4:00 to 7:00 and 11:00 to 1:00 positions. The format is in vivo, New Zealand White rabbits. The conditions noted are these: for Conjunctival congestion Score: individual rabbit; for Ophthalmic Observation (Slit-Lamp): individual rabbits; for Ocular finding associated with unilateral topical instillation: four times daily up to 31 days, BOL-303242-X 0.05, 0.25 or 0.5 mg/dose, dexamethasone 0.05 mg/dose. On the procedure:
On Days 1-31, animals received daily topical doses of the appropriate test article into the right eye. Animals were dosed four times per day, with doses administered 2 hours apart. Doses were administered using a calibrated 50-μL pipette. The eyelids were held close for 10 seconds immediately following dosing. The time of each dose administration was recorded.
Ophthalmic examinations (slit lamp) were performed prior to the first dosing on Days 5, 12, 22, 26, and 33. Ocular findings were scored according to the McDonald Shadduck system and recorded using a standardized data collection sheet.

The mark [2] stands for this setting: 1 mg/g BOL-303242-X 4 x daily, treated right eye, Day 22.
Where [3] appears, read: 5 mg/g BOL-303242-X 4 x daily, treated right eye, Day 5.
[4] abbreviates: 5 mg/g BOL-303242-X 4 x daily, treated right eye, Day 22.
Where [5] appears, read: 5 mg/g BOL-303242-X 4 x daily, treated right eye, Day 22, 26.
Where [6] appears, read: 5 mg/g BOL-303242-X 4 x daily, treated right eye, Day 26.
[7] abbreviates: 10 mg/g BOL-303242-X 4 x daily, treated right eye, Day 5, 12.
The mark [8] stands for this setting: 10 mg/g BOL-303242-X 4 x daily, treated right eye, Day 12.
[9] abbreviates: 10 mg/g BOL-303242-X 4 x daily, treated right eye, Day 26.
Setting [10] is: 0.1% Dexamethasone 4 x daily, treated right eye, Day 5.
Where [11] appears, read: 0.1% Dexamethasone 4 x daily, treated right eye, Day 22.

For the compound `Cc1ccc2c(NCC(O)(CC(C)(C)c3cc(F)cc4c3OCC4)C(F)(F)F)cccc2n1` (stereo not drawn) [BOL-303242-X], the “Cell viability (chemical reduction of resazurin) compared to vehicle controls” value with monkey TM cells is “nor did any drug treatments result in a loss of cell viability”. The “PGE2 in aqueous humor, statistical significance versus CTR” value in series [1] (0.1% topical formulation) and in series [1] (0.5% topical formulation) was “statistically significant versus CTR” throughout. For the same compound, the “PGE2 in aqueous humor, Mean” value in series [1] (0.1% topical formulation) was 1.452 ng/mL; in series [1] (0.5% topical formulation), 1.384 ng/mL; in series [1] (1% topical formulation), 2.168 ng/mL. The “PGE2 in aqueous humor” value in series [1] (0.1% topical formulation, listed as BOL) is 1.62 ng/mL and 1.88 ng/mL and 2.15 ng/mL and 0.70 ng/mL and 1.34 ng/mL and 1.03 ng/mL; in series [1] (0.5% topical formulation, listed as BOL) it was 2.31 ng/mL and 2.59 ng/mL and 0.53 ng/mL and 0.75 ng/mL and 0.80 ng/mL and 1.62 ng/mL and 1.09 ng/mL; in series [1] (1% topical formulation, listed as BOL), 0.50 ng/mL and 1.87 ng/mL and 1.71 ng/mL and 4.04 ng/mL and 1.11 ng/mL and 3.78 ng/mL. Also, the “Conjunctival congestion Score” value in the series with rabbit eyes (setting [2]), in the series with rabbit eyes (setting [3]), with rabbit eyes (setting [4]), with rabbit eyes (setting [5]), in the series on rabbit eyes (setting [6]) and in the series with rabbit eyes (setting [7]) was 1 in each case. Moreover, the “Conjunctival congestion Score” value with rabbit eyes (setting [8]) and with rabbit eyes (setting [9]) was 1 throughout. Also, the “Ophthalmic Observation (Slit-Lamp)” value in the series with rabbit eyes (setting [2]) is on record as “Conjunctival congestion”; with rabbit eyes (setting [3]), “Conjunctival congestion”; in the series on rabbit eyes (setting [4]), “Conjunctival congestion”; in the series on rabbit eyes (setting [5]) it was “Conjunctival congestion”; in the series on rabbit eyes (setting [6]), “Conjunctival congestion”; with rabbit eyes (10 mg/g BOL-303242-X 4 x daily, treated right eye, Day 5) it was “Surface area of cornea involvement”. The “Ophthalmic Observation (Slit-Lamp)” value in the series with rabbit eyes (setting [7]), in the series with rabbit eyes (setting [8]) and with rabbit eyes (setting [9]) was “Conjunctival Congestion” throughout. The Slit-lamp ophthalmic finding entry is reported as “subconjunctival hemorrhage” in the series on rabbit eyes (1 mg/g suspension, dosed right eye (Group D, No. 3043)) and “pinpoint corneal scar” in the series on rabbit eyes (10 mg/g suspension, dosed right eye (Group B, No. 3083)). For the same compound, the “Surface area of cornea involvement Score” value in the series with rabbit eyes (10 mg/g BOL-303242-X 4 x daily, treated right eye, rabbit 3083, Day 5) is on record as 1 (1-25% area of stromal cloudiness.). For the same compound, the “Cornea Score” value in the series with rabbit eyes (10 mg/g BOL-303242-X 4 x daily, treated right eye, rabbit 3083, Day 5, pinpoint corneal scar) is 1^(2). Besides, in the series on rabbit eyes, the “Ocular finding associated with unilateral topical instillation” value is given as “sporadic mild conjunctival congestion”.
As to `C[C@@H]1C[C@H]2[C@@H]3CCC4=CC(=O)C=C[C@]4(C)[C@@]3(F)[C@@H](O)C[C@]2(C)[C@@]1(O)C(=O)CO` [dexamethasone, reference compound], the “Cell viability (chemical reduction of resazurin) compared to vehicle controls” value in the series on monkey TM cells was “nor did any drug treatments result in a loss of cell viability”. In series [1] (0.1% topical formulation), the “PGE2 in aqueous humor, Mean” value stood at 2.263 ng/mL. Moreover, the “PGE2 in aqueous humor” value in series [1] (0.1% topical formulation, listed as Dex) is 2.51 ng/ml and 2.32 ng/ml (2×) and 2.10 ng/ml and 3.03 ng/ml and 1.30 ng/ml. Moreover, in the series on rabbit eyes (setting [10]), the “Conjunctival congestion Score” value was found to be 1 and the “Ophthalmic Observation (Slit-Lamp)” value was “Conjunctival Congestion”. Moreover, in the series on rabbit eyes (setting [11]), the “Conjunctival congestion Score” value was 1 and the “Ophthalmic Observation (Slit-Lamp)” value was “Conjunctival Congestion”. In addition, the “Ocular finding associated with unilateral topical instillation” value with rabbit eyes was “sporadic mild conjunctival congestion”.

For the origin of these results see patent publication US20120065228A1, “COMPOSITIONS AND METHODS FOR TREATING, CONTROLLING, REDUCING, OR AMELIORATING OCULAR INFLAMMATORY WITH LOWER RISK OF INCREASED INTRAOCULAR PRESSURE” (priority 2007, published 2012).
